We go through one molecule from article PMC6580366 (Journal of Medicinal Chemistry, 2019).

The test system of series [1] is P-gp/Caco-2. The settings on record: 5 μM; cited from earlier work.
Series [2] has as its system BV2 microglia cell line. As to conditions: cited from earlier work.
For series [3], the system named is BCRP/MDCK. As to conditions: 5 μM; cited from earlier work.
The conditions of series [4]: dog, 1 μM; cited from earlier work.
The conditions of series [5]: human, 1 μM; cited from earlier work.
Series [6] relates to CYP mRNA expression (CYP1A2, CYP2B, CYP3A). The settings on record: 0.5 to 50 μM, 48 h.

Where two headings read alike, the source gives them in different places.

Consider `CN1CCN(c2cc(-c3ccncc3)c(-c3ccc4ccccc4c3)nn2)CC1` [Compound 11, 6-(4-Methylpiperazin-1-yl)-3-(naphthalen-2-yl)-4-(pyridin-4-yl)pyridazine], for which, in series [1], the “Permeability Caco-2” value was “highly permeable” and the “Pump substrate status P-gp” value is listed as “Not substrate”. For the same molecule, the “cell proliferation, migration, or phagocytosis” value in series [2] is listed as “No effect on cell proliferation, migration, or phagocytosis”. In series [3], the “Permeability MDCK” value was “highly permeable” and the “Pump substrate status BCRP” value is on record as “Not substrate”. In series [4], the “Hepatocyte stability T1/2” value is “Human, T1/2 > 120 min; dog, T1/2 > 120 min (see ref ([14]))”. Also, in series [5], the “Hepatocyte stability T1/2” value is “Human, T1/2 > 120 min; dog, T1/2 > 120 min (see ref ([14]))”. In series [6], the CYP induction entry is given as “Negative (see Experimental Section)”.
